Test results published in patent USRE39591E1, “6-O-substituted ketolides having antibacterial activity” (Abbott Laboratories, priority 1996, dated 2007).
In brackets after ≈: the same amount, converted by molar mass.

Test system: up to 32 different microorganisms
Assay: in vitro antibacterial activity (MIC), agar dilution on Brain Heart Infusion (BHI) agar with Steers replicator
Format: cell-based
Conditions: unit assumed
Procedure, shortened: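 Up to 32 strains were replicator-inoculated (1:100, or 1:10 for Micrococcus and Streptococcus) onto BHI agar plates holding serial compound dilutions and kept 20-24 h at 35-37° C. Plates were read visually against drug-free growth controls, with erythromycin A run alongside; MIC was the lowest concentration giving no growth, slight haze or sparse colonies.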

[1] = Candida albicans CCH 442 (code TT)
[2] = Enterococcus faecism ATCC 8043 (code II)
[3] = Escherichia coli DC-2 (code SS)
[4] = Escherichia coli JUHL (code QQ)
[5] = Haemophilis influenzae DILL AMP R (code WW)
[6] = Micrococcus luteus ATCC 4698 (code PP)
[7] = Micrococcus luteus ATCC 9341 (code OO)
[8] = Mycobacterium smegmatis ATCC 114 (code UU)
[9] = Nocardia Asteroides ATCC9970 (code VV)
[10] = Staphylococcus aureus 1775 (code GG)
[11] = Staphylococcus aureus A5177 (code BB)
[12] = Staphylococcus aureus A-5278 (code CC)
[13] = Staphylococcus aureus ATCC 6538P (code AA)
[14] = Staphylococcus aureus CMX 553 (code FF)
[15] = Staphylococcus aureus CMX 642A (code DD)
[16] = Staphylococcus aureus NCTC10649M (code EE)
[17] = Staphylococcus epidermidis 3519 (code HH)
[18] = Streptococcus Pneumonia 5649 (code ZZA)
[19] = Streptococcus Pneumonia 5979 (code ZZ)
[20] = Streptococcus Pneumonia ATCC6303 (code XX)
[21] = Streptococcus Pneumonia GYR 1171 (code YY)
[22] = Streptococcus agalactiae CMX 508 (code KK)
[23] = Streptococcus bovis A-5169 (code JJ)
[24] = Streptococcus pyogenes 930 (code MM)
[25] = Streptococcus pyogenes EES61 (code LL)
[26] = Streptococcus pyogenes PIU 2548 (code NN)

SMILES: CC[C@H]1OC(=O)[C@H](C)C(=O)[C@H](C)[C@@H](O[C@@H]2O[C@H](C)C[C@H](N(C)C)[C@H]2O)[C@@](C)(OCC=Cc2ccccc2)C[C@@H](C)C(=O)[C@H](C)[C@H]2NC(=O)O[C@@]21C [Example 103, Compound of Formula (IX): L is CO, T is NH, R is —CH2CH═CH-Phenyl]
- MIC [1]: > 100 µg/mL
- MIC [2]: 0.05 µg/mL
- MIC [3]: 100 µg/mL
- MIC [4]: 100 µg/mL
- MIC (Escherichia coli SS (code RR)): 0.39 µg/mL
- MIC [5]: 4 µg/mL
- MIC [6]: 0.1 µg/mL
- MIC [7]: 0.01 µg/mL
- MIC [8]: 0.2 µg/mL
- MIC [9]: 0.02 µg/mL
- MIC [10]: > 100 µg/mL
- MIC [11]: 0.1 µg/mL
- MIC [12]: > 100 µg/mL
- MIC [13]: 0.1 µg/mL
- MIC [14]: 0.1 µg/mL
- MIC [15]: 0.1 µg/mL
- MIC [16]: 0.1 µg/mL
- MIC [17]: 0.1 µg/mL
- MIC [18]: 0.25 µg/mL
- MIC [19]: 128 µg/mL
- MIC [20]: 0.03 µg/mL
- MIC [21]: 0.03 µg/mL
- MIC [22]: 0.02 µg/mL
- MIC [23]: 0.01 µg/mL
- MIC [24]: 100 µg/mL
- MIC [25]: 0.02 µg/mL
- MIC [26]: 0.1 µg/mL

SMILES: CC[C@H]1OC(=O)[C@H](C)C(=O)[C@H](C)[C@@H](O[C@@H]2O[C@H](C)C[C@H](N(C)C)[C@H]2O)[C@@](C)(OCC=Cc2ccc(Cl)cc2)C[C@@H](C)C(=O)[C@H](C)[C@@H](O)[C@]1(C)O [Example 17, Compound of Formula (VIII): X is O, R is —CH2CH═CH-(4-chlorophenyl)]
- MIC [1]: 50 µg/mL
- MIC [2]: 1.56 µg/mL
- MIC [3]: > 100 µg/mL
- MIC [4]: > 100 µg/mL
- MIC (Escherichia coli SS (code RR)): 12.5 µg/mL
- MIC [5]: 64 µg/mL
- MIC [6]: 0.78 µg/mL
- MIC [7]: 0.39 µg/mL
- MIC [8]: 3.1 µg/mL
- MIC [9]: 3.1 µg/mL
- MIC [10]: 50 µg/mL
- MIC [11]: 1.56 µg/mL
- MIC [12]: 50 µg/mL
- MIC [13]: 1.56 µg/mL
- MIC [14]: 1.56 µg/mL
- MIC [15]: 1.56 µg/mL
- MIC [16]: 1.56 µg/mL
- MIC [17]: 1.56 µg/mL
- MIC [18]: 2 µg/mL
- MIC [19]: 32 µg/mL
- MIC [20]: 1 µg/mL
- MIC [21]: 0.5 µg/mL
- MIC [22]: 0.78 µg/mL
- MIC [23]: 0.39 µg/mL
- MIC [24]: 25 µg/mL
- MIC [25]: 0.78 µg/mL
- MIC [26]: 0.78 µg/mL

SMILES: CCC1OC(=O)C(C)C(=O)C(C)C(OC2OC(C)CC(N(C)C)C2O)C(C)(OCC=Cc2ccc3cc(O)c(C(=O)Nc4ccccc4OC)cc3c2)CC(C)C(=O)C(C)C2NC(=O)OC12C (centres unmarked) [Example 206, R is —CH2CH═CH-(3-hydroxy-2-(N-(2-methoxyphenyl)amido)-7-napthyl)]
- MIC (organism code AA): 0.78 µg/mL (≈ 0.839 µM)
- MIC (organism code BB): 0.39 µg/mL (≈ 0.419 µM)
- MIC (organism code CC): > 100 µg/mL
- MIC (organism code DD): 0.78 µg/mL (≈ 0.839 µM)
- MIC (organism code EE): 0.78 µg/mL (≈ 0.839 µM)
- MIC (organism code FF): 0.78 µg/mL (≈ 0.839 µM)
- MIC (organism code GG): > 100 µg/mL
- MIC (organism code HH): 0.78 µg/mL (≈ 0.839 µM)
- MIC (organism code II): 0.39 µg/mL (≈ 0.419 µM)
- MIC (organism code JJ): 0.1 µg/mL (≈ 0.108 µM)
- MIC (organism code KK): 0.39 µg/mL (≈ 0.419 µM)
- MIC (organism code LL): 0.39 µg/mL (≈ 0.419 µM)
- MIC (organism code MM): > 100 µg/mL
- MIC (organism code NN): 1.56 µg/mL (≈ 1.68 µM)
- MIC (organism code OO): 0.2 µg/mL (≈ 0.215 µM)
- MIC (organism code PP): 1.56 µg/mL (≈ 1.68 µM)
- MIC (organism code QQ): > 100 µg/mL
- MIC (organism code RR): 25 µg/mL (≈ 26.9 µM)
- MIC (organism code SS): > 100 µg/mL
- MIC (organism code TT): > 100 µg/mL
- MIC (organism code UU): 3.1 µg/mL (≈ 3.33 µM)
- MIC (organism code VV): 3.1 µg/mL (≈ 3.33 µM)
- MIC (organism code WW): > 128 µg/mL
- MIC (organism code XX): 0.5 µg/mL (≈ 0.538 µM)
- MIC (organism code YY): 0.5 µg/mL (≈ 0.538 µM)
- MIC (organism code ZZ): > 128 µg/mL
- MIC (organism code ZZA): 4 µg/mL (≈ 4.3 µM)

SMILES: CC[C@H]1OC(=O)[C@H](C)C(=O)[C@H](C)[C@@H](O[C@@H]2O[C@H](C)C[C@H](N(C)C)[C@H]2O)[C@@](C)(OCCNCCc2ccccc2)C[C@@H](C)C(=O)[C@H](C)[C@H]2NC(=O)O[C@@]21C [Example 222, Compound of Formula (IX): L is CO, T is NH, R is —CH2CH2NHCH2CH2Phenyl]
- MIC (organism code AA): 0.2 µg/mL
- MIC (organism code BB): 0.1 µg/mL
- MIC (organism code CC): > 100 µg/mL
- MIC (organism code DD): 0.39 µg/mL
- MIC (organism code EE): 0.2 µg/mL
- MIC (organism code FF): 0.2 µg/mL
- MIC (organism code GG): > 100 µg/mL
- MIC (organism code HH): 0.2 µg/mL
- MIC (organism code II): 0.02 µg/mL
- MIC (organism code JJ): ≤ 0.005 µg/mL
- MIC (organism code KK): 0.02 µg/mL
- MIC (organism code LL): ≤ 0.005 µg/mL
- MIC (organism code MM): > 100 µg/mL
- MIC (organism code NN): 0.39 µg/mL
- MIC (organism code OO): 0.01 µg/mL
- MIC (organism code PP): 0.2 µg/mL
- MIC (organism code QQ): 25 µg/mL
- MIC (organism code RR): 0.1 µg/mL
- MIC (organism code SS): 25 µg/mL
- MIC (organism code TT): > 100 µg/mL
- MIC (organism code UU): 0.78 µg/mL
- MIC (organism code VV): 0.2 µg/mL
- MIC (organism code WW): 4 µg/mL
- MIC (organism code XX): 0.03 µg/mL
- MIC (organism code YY): 0.06 µg/mL
- MIC (organism code ZZ): > 128 µg/mL
- MIC (organism code ZZA): 2 µg/mL

SMILES: CCC1OC(=O)C(C)C(=O)C(C)C(OC2OC(C)CC(N(C)C)C2O)C(C)(OCC=Cc2cn(C)c(=O)n(C)c2=O)CC(C)C(=O)C(C)C2NC(=O)OC12C (centres unmarked) [Example 293, Compound of Formula (IX): L is CO, T is NH, R is —CH2—CH═CH-(1,3-dimethyl-2,4-dioxo-5-pyrimidinyl)]
- MIC (organism code AA): 0.39 µg/mL
- MIC (organism code BB): 0.39 µg/mL
- MIC (organism code CC): > 100 µg/mL
- MIC (organism code DD): 0.39 µg/mL
- MIC (organism code EE): 0.39 µg/mL
- MIC (organism code FF): 0.39 µg/mL
- MIC (organism code GG): > 100 µg/mL
- MIC (organism code HH): 0.39 µg/mL
- MIC (organism code II): 0.1 µg/mL
- MIC (organism code JJ): 0.02 µg/mL
- MIC (organism code KK): 0.05 µg/mL
- MIC (organism code LL): 0.02 µg/mL
- MIC (organism code MM): > 100 µg/mL
- MIC (organism code NN): 0.78 µg/mL
- MIC (organism code OO): 0.05 µg/mL
- MIC (organism code PP): 0.2 µg/mL
- MIC (organism code QQ): > 100 µg/mL
- MIC (organism code RR): 0.78 µg/mL
- MIC (organism code SS): > 100 µg/mL
- MIC (organism code TT): > 100 µg/mL
- MIC (organism code UU): 12.5 µg/mL
- MIC (organism code VV): 0.78 µg/mL
- MIC (organism code WW): 16 µg/mL
- MIC (organism code XX): 0.03 µg/mL
- MIC (organism code YY): 0.03 µg/mL
- MIC (organism code ZZ): > 128 µg/mL
- MIC (organism code ZZA): 0.5 µg/mL

SMILES: C=CCOC1(C)CC(C)C(=O)C(C)C(O)C(C)(O)C(CC)OC(=O)C(C)C(=O)C(C)C1OC1OC(C)CC(N(C)C)C1O (centres unmarked) [Example 1, Compound of Formula (VIII): X is O, R is allyl]
- MIC [1]: > 100 µg/mL
- MIC [2]: 12.5 µg/mL
- MIC [3]: > 100 µg/mL
- MIC [4]: > 100 µg/mL
- MIC (Escherichia coli SS (code RR)): 12.5 µg/mL
- MIC [5]: > 128 µg/mL
- MIC [6]: 6.2 µg/mL
- MIC [7]: 3.1 µg/mL
- MIC [8]: > 100 µg/mL
- MIC [9]: 6.3 µg/mL
- MIC [10]: > 100 µg/mL
- MIC [11]: 50 µg/mL
- MIC [12]: > 100 µg/mL
- MIC [13]: 12.5 µg/mL
- MIC [14]: 25 µg/mL
- MIC [15]: 50 µg/mL
- MIC [16]: 6.2 µg/mL
- MIC [17]: 50 µg/mL
- MIC [18]: 8 µg/mL
- MIC [19]: > 128 µg/mL
- MIC [20]: 4 µg/mL
- MIC [21]: 4 µg/mL
- MIC [22]: 6.2 µg/mL
- MIC [23]: 25 µg/mL
- MIC [24]: > 100 µg/mL
- MIC [26]: 12.5 µg/mL
